Experimental data: patent US11987588B2, “Modulators of the beta-3 adrenergic receptor useful for the treatment or prevention of heart failure and disorders related thereto” (Arena Pharmaceuticals, Inc., priority 2017, dated 2024)

What follows are compounds tested against Beta-3 Adrenergic Receptor (Homo sapiens (Human), UniProt P13945) (assay: Homogeneous Time-Resolved Fluorescence (HTRF) cAMP antagonist assay, IC50 determination). Conditions: CHO-K1 cells stably expressing recombinant receptor, isoproterenol at EC90.
Format: cell-based
Description: HTRF cAMP assays were performed according to manufacturer's instructions (Cisbio, cAMP Dynamic 2 Assay Kit; #62AM4PEJ). CHO-K1 cells stably expressing recombinant receptor were harvested and suspended in warm PBS to make a 300,000 cells/mL stock. This cell suspension was dispensed into 384 well assay plates (PerkinElmer ProxiPlate #6008280) at 5 μL per well (1500 cells/well) along with a cAMP standard curve.
Compounds were dissolved and serially diluted (5-fold) in DMSO to generate a 10-point dose response stock. The stock was then diluted 100-fold in assay buffer (PBS containing 1 mM IBMX) before a volume of 2.5 μL was added to the cells (the final, top concentration of compound in the dose-response is typically 10 or 100 μM). After a brief incubation, 2.5 μL of isoproterenol stock, prepared at a concentration 4 times its EC90 at the receptor of interest, was added to the wells. The EC90 for isoproterenol, a beta-adrenergic agonist, was determined in separate experiments using standard methods to measure agonist potencies.
Following a 1-hour incubation at room temperature, 5 μL of cAMP-D2 Reagent diluted in Lysis Buffer was added to each well followed by 5 μL of Cryptate Reagent. Plates were further incubated at room temperature for 1 hour prior to reading. Time resolved fluorescence measurements were collected on a suitable, HTRF-capable plate reader.
Counts from the plate reader were fit to the cAMP standard curve on the assay plate in order to determine cAMP concentrations in each well, and these values were used to construct dose-response curves to obtain IC50 values.

Chain of Beta-3 Adrenergic Receptor (P13945 whole entry, species assumed): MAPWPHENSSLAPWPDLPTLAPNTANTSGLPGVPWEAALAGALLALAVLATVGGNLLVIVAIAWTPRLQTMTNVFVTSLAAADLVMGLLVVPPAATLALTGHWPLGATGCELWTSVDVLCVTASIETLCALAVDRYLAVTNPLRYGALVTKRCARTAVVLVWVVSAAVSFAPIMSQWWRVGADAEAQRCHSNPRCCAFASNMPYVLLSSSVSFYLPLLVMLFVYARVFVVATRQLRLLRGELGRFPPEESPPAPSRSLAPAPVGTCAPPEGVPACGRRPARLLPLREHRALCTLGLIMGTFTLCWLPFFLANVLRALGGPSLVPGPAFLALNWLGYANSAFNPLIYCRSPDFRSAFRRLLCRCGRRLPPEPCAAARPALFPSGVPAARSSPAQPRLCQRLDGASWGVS

Compound | IC50 [nM]
CNS(=O)(=O)c1cccc(OC[C@@H](O)CNC2COC3(CCN(S(=O)(=O)c4cccc(-c5cccc(S(C)(=O)=O)c5)c4)CC3)C2)c1 (stereo partly drawn) [Compound 71, 3-((2S)-2-hydroxy-3-(8-(3′-(methylsulfonyl)biphenyl-3-ylsulfonyl)-1-oxa-8-azaspiro[4.5]decan-3-ylamino)propoxy)-N-methylbenzenesulfonamide] | 31.2
CCNS(=O)(=O)c1cccc(OC[C@@H](O)CNC2COC3(CCN(S(=O)(=O)c4cccc(-c5ccc(CN)cc5)c4)CC3)C2)c1 (stereo partly drawn) [Compound 210, 3-((2S)-3-(8-(4′-(aminomethyl)biphenyl-3-ylsulfonyl)-1-oxa-8-azaspiro[4.5]decan-3-ylamino)-2-hydroxypropoxy)-N-ethylbenzenesulfonamide] | 20.4
CNS(=O)(=O)c1cccc(OC[C@@H](O)CNC2COC3(CCN(S(=O)(=O)c4ccc(C)cc4OC)CC3)C2)c1 (stereo partly drawn) [Compound 135, 3-((2S)-2-hydroxy-3-(8-(2-methoxy-4-methylphenylsulfonyl)-1-oxa-8-azaspiro[4.5]decan-3-ylamino)propoxy)-N-methylbenzenesulfonamide] | 33.3
CNS(=O)(=O)c1cccc(OC[C@@H](O)CNC2COC3(CCN(S(=O)(=O)c4ccc5c(c4)NCCO5)CC3)C2)c1 (stereo partly drawn) [Compound 355, 3-((2S)-3-(8-(3,4-dihydro-2H-benzo[b][1,4]oxazin-6-ylsulfonyl)-1-oxa-8-azaspiro[4.5]decan-3-ylamino)-2-hydroxypropoxy)-N-methylbenzenesulfonamide] | 17.2
CNS(=O)(=O)c1cccc(OC[C@@H](O)CNC2COC3(CCN(S(=O)(=O)c4cncc(-c5ccc(CN)nc5)c4)CC3)C2)c1 (stereo partly drawn) [Compound 388, 3-((2S)-3-(8-(6′-(aminomethyl)-3,3′-bipyridin-5-ylsulfonyl)-1-oxa-8-azaspiro[4.5]decan-3-ylamino)-2-hydroxypropoxy)-N-methylbenzenesulfonamide] | 79.4
CNC(=O)[C@@H](NS(=O)(=O)c1cccc(OC[C@@H](O)CNC2COC3(CCN(S(=O)(=O)c4ccc5ccccc5c4)CC3)C2)c1)[C@@H](C)O (stereo partly drawn) [Compound 92, (2S,3R)-3-hydroxy-2-(3-((2S)-2-hydroxy-3-(8-(naphthalen-2-ylsulfonyl)-1-oxa-8-azaspiro[4.5]decan-3-ylamino)propoxy)phenylsulfonamido)-N-methylbutanamide] | 1990
CNS(=O)(=O)c1cccc(OC[C@@H](O)CNC2COC3(CCN(S(=O)(=O)c4cc(C)cc(F)c4)CC3)C2)c1 (stereo partly drawn) [Compound 179, 3-((2S)-3-(8-(3-fluoro-5-methylphenylsulfonyl)-1-oxa-8-azaspiro[4.5]decan-3-ylamino)-2-hydroxypropoxy)-N-methylbenzenesulfonamide] | 8.15
CCNS(=O)(=O)c1cccc(OC[C@@H](O)CNC2COC3(CCN(S(=O)(=O)c4ccc(OC)c(C)c4)CC3)C2)c1 (stereo partly drawn) [Compound 225, N-ethyl-3-((2S)-2-hydroxy-3-(8-(4-methoxy-3-methylphenylsulfonyl)-1-oxa-8-azaspiro[4.5]decan-3-ylamino)propoxy)benzenesulfonamide] | 186
CNS(=O)(=O)c1cccc(OC[C@@H](O)CN[C@H]2COC3(CCN(S(=O)(=O)c4cc(-c5ccc(CN)cc5)ccc4OC)CC3)C2)c1 [Compound 385, 3-((S)-3-((R)-8-(4′-(aminomethyl)-4-methoxybiphenyl-3-ylsulfonyl)-1-oxa-8-azaspiro[4.5]decan-3-ylamino)-2-hydroxypropoxy)-N-methylbenzenesulfonamide] | 11
CNS(=O)(=O)c1cccc(OC[C@@H](O)CNC2COC3(CCN(S(=O)(=O)c4ccccc4F)CC3)C2)c1 (stereo partly drawn) [Compound 34, 3-((2S)-3-(8-(2-fluorophenylsulfonyl)-1-oxa-8-azaspiro[4.5]decan-3-ylamino)-2-hydroxypropoxy)-N-methylbenzenesulfonamide] | 24.2
CNS(=O)(=O)c1cccc(OC[C@@H](O)CNC2COC3(CCN(S(=O)(=O)c4ccc(C)cc4)CC3)C2)c1 (stereo partly drawn) [Compound 53, 3-((2S)-2-hydroxy-3-(8-tosyl-1-oxa-8-azaspiro[4.5]decan-3-ylamino)propoxy)-N-methylbenzenesulfonamide] | 21.8
CNS(=O)(=O)c1cccc(OC[C@@H](O)CNC2COC3(CCN(S(=O)(=O)c4cccc(C(=O)O)c4)CC3)C2)c1 (stereo partly drawn) [Compound 56, 3-(3-((S)-2-hydroxy-3-(3-(N-methylsulfamoyl)phenoxy)propylamino)-1-oxa-8-azaspiro[4.5]decan-8-ylsulfonyl)benzoic acid] | 387

The remaining lines, values ahead:

IC50 [nM] | Compound
38.9 | CNS(=O)(=O)c1cccc(OC[C@@H](O)CN[C@H]2COC3(CCN(S(=O)(=O)c4cc5c(nc4OC)OCCN5C)CC3)C2)c1 [Compound 476, 3-((S)-2-hydroxy-3-((R)-8-(6-methoxy-1-methyl-2,3-dihydro-1H-pyrido[2,3-b][1,4]oxazin-7-ylsulfonyl)-1-oxa-8-azaspiro[4.5]decan-3-ylamino)propoxy)-N-methylbenzenesulfonamide]
20.2 | CNS(=O)(=O)c1cccc(OC[C@@H](O)CNC2COC3(CCN(S(=O)(=O)c4cnc5c(c4)N(C)CCO5)CC3)C2)c1 (stereo partly drawn) [Compound 399, 3-((2S)-2-hydroxy-3-(8-(1-methyl-2,3-dihydro-1H-pyrido[2,3-b][1,4]oxazin-7-ylsulfonyl)-1-oxa-8-azaspiro[4.5]decan-3-ylamino)propoxy)-N-methylbenzenesulfonamide]
51.2 | NS(=O)(=O)c1cccc(OC[C@@H](O)CN[C@H]2COC3(CCN(S(=O)(=O)c4ccc5c(c4)CCCO5)CC3)C2)c1 [Compound 565, 3-((S)-3-((R)-8-(chroman-6-ylsulfonyl)-1-oxa-8-azaspiro[4.5]decan-3-ylamino)-2-hydroxypropoxy)benzenesulfonamide]
17.8 | NS(=O)(=O)c1cccc(OC[C@@H](O)CN[C@H]2COC3(CCN(S(=O)(=O)c4c[nH]c5ccc(F)cc5c4=O)CC3)C2)c1 [Compound 552, 3-((S)-3-((R)-8-(6-fluoro-4-oxo-1,4-dihydroquinolin-3-ylsulfonyl)-1-oxa-8-azaspiro[4.5]decan-3-ylamino)-2-hydroxypropoxy)benzenesulfonamide]
12.7 | NS(=O)(=O)c1cccc(OC[C@@H](O)CN[C@H]2COC3(CCN(S(=O)(=O)c4cnc5cc[nH]c5c4)CC3)C2)c1 [Compound 532, 3-((S)-3-((R)-8-(1H-pyrrolo[3,2-b]pyridin-6-ylsulfonyl)-1-oxa-8-azaspiro[4.5]decan-3-ylamino)-2-hydroxypropoxy)benzenesulfonamide]
211 | CNS(=O)(=O)c1cccc(OC[C@@H](O)CN[C@H]2COC3(CCN(S(=O)(=O)c4ccc5[nH]ncc5c4OC)CC3)C2)c1 [Compound 508, 3-((S)-2-hydroxy-3-((R)-8-(4-methoxy-1H-indazol-5-ylsulfonyl)-1-oxa-8-azaspiro[4.5]decan-3-ylamino)propoxy)-N-methylbenzenesulfonamide]
78.6 | NS(=O)(=O)c1cccc(OC[C@@H](O)CN[C@H]2COC3(CCN(S(=O)(=O)c4ccc5ncccc5c4)CC3)C2)c1 [Compound 566, 3-((S)-2-hydroxy-3-((R)-8-(quinolin-6-ylsulfonyl)-1-oxa-8-azaspiro[4.5]decan-3-ylamino)propoxy)benzenesulfonamide]
75.3 | CNS(=O)(=O)c1cccc(OC[C@@H](O)CN[C@H]2COC3(CCN(S(=O)(=O)c4cnc5c(c4)OCCO5)CC3)C2)c1 [Compound 480, 3-((S)-3-((R)-8-(2,3-dihydro-[1,4]dioxino[2,3-b]pyridin-7-ylsulfonyl)-1-oxa-8-azaspiro[4.5]decan-3-ylamino)-2-hydroxypropoxy)-N-methylbenzenesulfonamide]
16.9 | CNS(=O)(=O)c1cccc(OC[C@@H](O)CNC2COC3(CCN(S(=O)(=O)c4ccc(N5CCCCC5)nc4)CC3)C2)c1 (stereo partly drawn) [Compound 421, 3-((2S)-2-hydroxy-3-(8-(6-(piperidin-1-yl)pyridin-3-ylsulfonyl)-1-oxa-8-azaspiro[4.5]decan-3-ylamino)propoxy)-N-methylbenzenesulfonamide]
149 | CNS(=O)(=O)c1cccc(OC[C@@H](O)CNC2COC3(CCN(S(=O)(=O)c4ccc(NCCN)nc4)CC3)C2)c1 (stereo partly drawn) [Compound 429, 3-((2S)-3-(8-(6-(2-aminoethylamino)pyridin-3-ylsulfonyl)-1-oxa-8-azaspiro[4.5]decan-3-ylamino)-2-hydroxypropoxy)-N-methylbenzenesulfonamide]
206 | CNS(=O)(=O)c1cccc(OC[C@@H](O)CNC2COC3(CCN(S(=O)(=O)c4ccc(O)nc4)CC3)C2)c1 (stereo partly drawn) [Compound 395, 3-((2S)-2-hydroxy-3-(8-(6-hydroxypyridin-3-ylsulfonyl)-1-oxa-8-azaspiro[4.5]decan-3-ylamino)propoxy)-N-methylbenzenesulfonamide]
14.3 | NS(=O)(=O)c1cccc(OC[C@@H](O)CN[C@H]2COC3(CCN(S(=O)(=O)c4cnc5ccccc5c4O)CC3)C2)c1 [Compound 548, 3-((S)-2-hydroxy-3-((R)-8-(4-hydroxyquinolin-3-ylsulfonyl)-1-oxa-8-azaspiro[4.5]decan-3-ylamino)propoxy)benzenesulfonamide]
